Where “and” joins values, the source holds several entries; their conditions need not be identical. Equal entries are not always repeated. Where two headings read alike, the source gives them in different places.
What was measured:
EGF = test: Serum angiogenesis marker, multiplex bead-based immunoassay (LEGENDplex); assay type: in vivo, human; set-up: EGF: unit not given here; settings: for EGF: serum, duplicate wells
hepatocellular carcinoma = tested on: hepatocellular carcinoma; set-up: method as in ref 10 (supplementary references); settings: syngeneic, orthotopic rat model of hepatocellular carcinoma; ref 10 (supplementary references); cited from earlier work
pancreatic carcinoma = tested on: pancreatic carcinoma; set-up: method as in ref 15 (supplementary references); settings: ref 15 (supplementary references), cited from earlier work
[1] = set-up: method as in unpublished data obtained from NormOxys; settings: rats, once a week for 5 weeks; ref unpublished data obtained from NormOxys; cited from earlier work

Structure (SMILES): O=P1(O)OC2C3OP(=O)(O)OP(=O)(O)OC3C3OP(=O)(O)OP(=O)(O)OC3C2OP(=O)(O)O1 (stereo not shown) [ITPP, Myo-inositol trispyrophosphate]
- Share of patients with reduced EGF (EGF; following ITPP treatment, 27 patients): 85.2%
- EGF (EGF; Patient 25, Cohort 8, PDAC, Day 3 post): 16.25
- EGF (EGF; Patient 25, Cohort 8, PDAC, Day 9 post): 11.62 and 15.2
- EGF (EGF; Patient 26, Cohort 8, PDAC, Day 3 post): 14.41 and 12.95
- EGF (EGF; Patient 26, Cohort 8, PDAC, Day 9 post): 9.76 and 9.88
- EGF (EGF; Patient 27, Cohort 8, CCC, Day 3 post): 5.57 and 4.9
- EGF (EGF; Patient 27, Cohort 8, CCC, Day 9 post): 9.82 and 10.17
- EGF (EGF; Patient 28, Cohort 8, CRLM, Day 3 post): 2.39 and 3.39
- EGF (EGF; Patient 28, Cohort 8, CRLM, Day 9 post): 3.09 and 2.24
- Rats alive after 100 days (hepatocellular carcinoma): nine out of ten
- Survival (pancreatic carcinoma; ITPP combined with half the usual dose of gemcitabine, all animals): > 200 days
- Survival (pancreatic carcinoma; ITPP treatment alone): 93 days
- Human equivalent dose-corrected NOAEL [1]: 15,000 mg/m2

From article PMC8217170, “Phase Ib dose-escalation study of the hypoxia-modifier Myo-inositol trispyrophosphate in patients with hepatopancreatobiliary tumors” (Nature Communications, 2021)
